Assays:
M. incognita J2 larvae = assay: Meloidogyne incognita in vitro assays (J2 movement); type: in vivo; details: 45 μM, 2 days, relative to DMSO control
Experimental: M. incognita (Kofoid & White) Chitwood Race 1 (originally isolated in Maryland) was used for all experiments, and was maintained on pepper (Capsicum annuum L.) cv. PA-136 in a greenhouse as previously described^64. Infective J2 juveniles were collected as described in ref.65. The microwell dose-response experiments were carried out similarly to previously described protocols^64, 66. In brief, 100 J2s, in 10 μL of deionized water, were added to the wells of 96-well polystyrene plates, after which 190 μL of deionized water containing dissolved chemical, or DMSO alone, was added to each well. The chemicals were tested at 45 μM, and the final concentration of DMSO in each well was 0.5% (v/v). The wells were covered with a plastic adhesive strip, and the lids of the plates were sealed with parafilm. The plates were incubated at 25° C. The mobile fraction of worms was quantified by counting the number of mobile and immobile worms after 2 days of incubation, and then dividing the number of mobile worms by the total number of worms in the well. Three technical replicates were performed for each treatment, and an average value for the mobile fraction of worms was calculated across the three replicates. The percent effectiveness at inhibiting nematode movement was calculated by dividing the average value for the chemical treatment by the average value for the DMSO control, then subtracting this value from 1, and then multiplying by 100.

S. cerevisiae = assay: Saccharomyces cerevisiae (budding yeast) dose-response experiments; type: cell-based; details: non-target system; growth over 18 hours
Experimental: A saturated culture of the yeast strain RY0568 was diluted to an OD600 of 0.015 with fresh YPD media (see ref. 62). 100 μL of this dilute yeast suspension was added to each well of a 96-well plate. The yeast were grown for 4 hours at 30° C. with shaking at 140 rpm. Using a multichannel pipette, 1 μL of chemical solution was added to each well to achieve the desired final concentrations. The final DMSO concentration was 1% (v/v). The microwell plate was then loaded into a TECAN plate reader set at 30° C. The OD600 of each well was measured over an 18-hour period, and the plate was shaken intermittently throughout the run. The areas under the resultant growth curves were calculated using R scripts adapted from those found in the MESS package. The area under the curve at each concentration of a dose-response assay was divided by the area under the curve for the corresponding DMSO control, resulting in a “relative fitness” value for each concentration tested. Three biological replicates were performed for each dose-response experiment, and the relative fitness values were averaged across the three replicates.

HEK293 cells = assay: HEK cell culture and dose-response experiments; type: cell-based, Human; details: non-target system; 48 hours, CellTiter-Blue
Experimental: HEK293 cells were seeded into 96-well plates, at 5000 cells per well, in 100 μL total volumes of DMEM/10% FBS/1% PS media and grown overnight at 37° C. in the presence of 5% CO2. Compounds (0.5 μL volumes from appropriate source plates) were then added to cells, and growth was continued for an additional 48 hours. Following growth, 10 μL of CellTiter-Blue Viability reagent (Promega) was added to each well, and plates were incubated for an additional 4 hours at 37° C. in the presence of 5% CO2. Fluorescence measurements (560 nm excitation/590 nm emission) were then performed using a CLARIOstar Plate Reader (BMG Labtech) to quantify reagent reduction and estimate cell viability.

C57BL/6 mice = assay: Mouse studies (oral dosing, pathologies); type: in vivo; details: oral dose 50 mg/kg over several days
Experimental: Female C57BL/6 mice (bred in house, breeding pairs originally purchased from Charles River, Canada) 6-8 weeks of age were used for all experiments. Animal experiments were approved by the University of Calgary's Animal Care Committee. Infected mice were orally gavaged with a 200 third stage Heligmosomoides polygyrus larvae (maintained in house. Original stock was a gift from Dr. Allen Shostak, University of Alberta, Canada) and euthanized on day 22 post infection. […] Mice were treated orally with 5 daily doses of exemplary compound Ia (50 mg/kg resuspended in DMSO). Control mice were given DMSO only as a control.

Arabidopsis thaliana = Arabidopsis thaliana greening experiments; type: in vivo; details: 5, 15 and 45 micromolar, greening after 4 days
Experimental: Greening experiments were performed with Arabidopsis thaliana seeds of wild type Col-0; seeds were surface sterilized in bleach and plated onto 0.5×MS, 0.5% sucrose agar medium supplemented with compounds of interest at 5, 15 and 45 μM concentrations. After 4 d of stratification at 4° C., plates were transferred to a growth chamber (16 h/8 h, 150 μE/m^2) and greening recorded after 4 days. Pictures were recorded by camera (SONY a7s) with FE1.8/55 lens (FE 55 mm F1.8 ZA; SEL55F18Z). Experiments were performed in triplicate for each treatment.

tomato plants = assay: Root mass of tomato plants in the infectivity assays; type: in vivo, Solanum lycopersicum; details: 45 μM
Experimental: An M. incognita population originally collected from grape (Vitis vinifera) in Parlier, Calif., was used for all experiments, and they were maintained on tomato plants (Solanum lycopersicum ‘Rutgers’) as previously described^73. Infective J2 juveniles were collected as described in^73. For the infectivity assays, 90 grams of soil (1:1 sand:loam mix) was added to each cell of several 6-cell plastic garden packs. The soil was drenched with 18 mL of deionized water containing dissolved chemical or DMSO alone. 2,500 infective J2 juveniles were then added to the soil in 2 mL of deionized water, for a total water volume of 20 mL. The final concentration of the chemicals in water was 45 μM. The DMSO concentration varied from 0.1% to 0.8% (v/v) depending on the stock concentration of the chemical. The highest DMSO concentration was used as the DMSO control. The J2s were incubated in the soil and chemical for 24 hours, after which two- to three-week old tomato seedlings were transplanted into the soil (one plant per cell). Two replicates were performed for each chemical treatment, and four replicates were done for the DMSO controls. The whole experiment was replicated twice, in two different batches on two different days, for a total of four replicates for each chemical treatment, and eight replicates for the DMSO controls. Inoculated plants were grown for 8 weeks in a greenhouse, as described^73, under long-day conditions (16-h photoperiod) with 26/18° C. day/night temperatures. After 8 weeks, the plants were destructively harvested. The tops were removed and discarded, and roots were gently washed with water to remove adhering soil. Eggs were extracted by placing rinsed roots in 0.6% sodium hypochlorite and agitating at 300 rpm for 3 min. Roots were then rinsed over nested 250- and 25.4-μm sieves, with eggs collected from the latter and suspended in water. Roots were dried in a 65° C. oven for at least 24 hours, after which dry roots were weighed. The number of eggs from each plant root was counted on a dissection microscope using a haemocytometer, and the number of eggs per milligram of root was calculated by dividing the total egg number by the mass of the dried root material. An average was taken across the replicates performed on the same day, and then normalized to the DMSO control average. To calculate percent effectiveness at inhibiting reproduction, the normalized values were subtracted from 1, and then multiplied by 100. An average percent effectiveness value was then calculated across the two different batches carried out on different days.

## Cc1csc2nc(-c3ccccc3)cn12 [Compound Ie]
M. incognita J2 larvae
  % effectiveness at reducing M. incognita movement: 4.9%

## Clc1ccc(-c2cn3ccsc3n2)cc1 [Ia]
S. cerevisiae
  S. cerevisiae LC50: inactive
HEK293 cells
  HEK Cells LC50: inactive
C57BL/6 mice
  obvious pathologies in comparison with the solvent control: did not exhibit any obvious pathologies
Arabidopsis thaliana
  effect on health and greening of Arabidopsis thaliana plants (phytotoxicity): some phytotoxicity and yellowing at the highest concentration
Tomato plants
  Normalized root mass (relative to DMSO control): 1.3

Source: US20220264883A1, “IMIDAZOTHIAZOLE COMPOUNDS AND METHODS FOR TREATING PLANT NEMATODE INFECTIONS” (The Governing Council of the University of Toronto, priority 2019, published 2022)
